Patent publication US9732088B2, “C2-carbocyclic iminothiazine dioxides as BACE inhibitors, compositions, and their use” (Merck Sharp & Dohme Corp., priority 2014, dated 2017)

molecular target: BACE-1 (Homo sapiens (Human), UniProt P56817); test: BACE-1 Cellular Assay (Aβ in HEK293-APPswe/lon cells); assay type: cell-based; conditions: 4 hours
Protocol: Assay 3: BACE-1 Cellular Assay
Certain compounds of the invention, identified in the tables herein, were determined to be potent inhibitors of BACE-1 in the following cellular assay. HEK293 cells are obtained from the American Type Culture Collection (ATCC) and stably transfected with the human amyloid precursor protein cDNA containing the FAD Swedish (enhances β-secretase processing) and London (enhances Aβ42 cleavage) mutations. A HEK293 stable clone with Aβ expression (HEK293-APP^swe/lon) is identified and maintained at 37° C., 5% CO2 in the ATCC-recommended growth media supplemented with hygromycin. […] Aβ40 or Aβ42 are measured in 15 μl of media using a mesoscale based ELISA assay. Full length Aβ40 and Aβ42 peptides are captured with the N-terminal specific biotinylated-WO2 monoclonal antibody and detected using either the ruthenylated Aβ40 C-terminal specific monoclonal antibody, G2-10 or the ruthenylated Aβ42 C-terminal specific monoclonal antibody G2-11 respectively. Raw electrochemiluminescnce values are measured using a Mesoscale Sector Imager plate reader and are plotted as a function of compound concentration. IC50 values are interpolated from the data using nonlinear regression analysis (Sigmoidal dose response fit with variable slope) of the data using GraphPad Prism software.

Chain of BACE-1 (P56817 46-501): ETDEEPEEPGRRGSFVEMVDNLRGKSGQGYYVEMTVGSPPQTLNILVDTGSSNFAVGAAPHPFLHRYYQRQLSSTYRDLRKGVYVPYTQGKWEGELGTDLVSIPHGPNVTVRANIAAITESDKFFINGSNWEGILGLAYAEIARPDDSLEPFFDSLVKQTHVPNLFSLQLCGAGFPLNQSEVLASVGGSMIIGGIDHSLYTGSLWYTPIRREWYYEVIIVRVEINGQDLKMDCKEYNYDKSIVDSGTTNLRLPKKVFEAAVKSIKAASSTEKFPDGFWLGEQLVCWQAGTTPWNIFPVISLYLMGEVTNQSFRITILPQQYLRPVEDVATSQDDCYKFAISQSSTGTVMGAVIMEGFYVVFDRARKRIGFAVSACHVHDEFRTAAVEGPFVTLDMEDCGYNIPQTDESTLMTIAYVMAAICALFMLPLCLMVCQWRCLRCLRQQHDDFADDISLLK

| Compound | IC50 |
| --- | --- |
| C[C@@]1(c2cc(Nc3nccc4cc(F)cnc34)ncc2F)CS(=O)(=O)[C@@](C)(C2CC2)C(N)=N1 [Example 26, (3R,6S)-5-amino-6-cyclopropyl-3-(5-fluoro-2-((3-fluoro-1,7-naphthyridin-8-yl)amino)pyridin-4-yl)-3,6-dimethyl-3,6-dihydro-2H-1,4-thiazine 1,1-dioxide] | 250 nM |
| CC#CCOc1cnc2c(Nc3cc([C@]4(C)CS(=O)(=O)[C@@](C)(C5CC5)C(N)=N4)c(F)cn3)nccc2n1 [Example 28, (3R,6S)-5-amino-3-(2-((2-(but-2-yn-1-yloxy)pyrido[3,4-b]pyrazin-5-yl)amino)-5-fluoropyridin-4-yl)-6-cyclopropyl-3,6-dimethyl-3,6-dihydro-2H-1,4-thiazine 1,1-dioxide] | 6.3 nM |
| CC#CCOc1cnc2c(Nc3cnc(F)c([C@]4(C)CS(=O)(=O)[C@@](C)(C5CC5)C(N)=N4)c3)nccc2n1 [Example 29, (3R,6S)-5-amino-3-(5-((2-(but-2-yn-1-yloxy)pyrido[3,4-b]pyrazin-5-yl)amino)-2-fluoropyridin-3-yl)-6-cyclopropyl-3,6-dimethyl-3,6-dihydro-2H-1,4-thiazine 1,1-dioxide] | 30 nM |
| CC#CCOc1cnc2c(Nc3cnc(F)c([C@]4(C)CS(=O)(=O)[C@@](C)(C5CC5)C(N)=N4)c3)nccc2c1 [Example 30, (3R,6S)-5-amino-3-(5-((3-(but-2-yn-1-yloxy)-1,7-naphthyridin-8-yl)amino)-2-fluoropyridin-3-yl)-6-cyclopropyl-3,6-dimethyl-3,6-dihydro-2H-1,4-thiazine 1,1-dioxide] | 28 nM |
| C[C@@]1(c2cc(Nc3ccnc4cccnc34)ncc2F)CS(=O)(=O)[C@@](C)(C2CC2)C(N)=N1 [Example 31, (3R,6S)-3-(2-((1,5-naphthyridin-4-yl)amino)-5-fluoropyridin-4-yl)-5-amino-6-cyclopropyl-3,6-dimethyl-3,6-dihydro-2H-1,4-thiazine 1,1-dioxide] | 180 nM |

Results, then the compound that gave them:

| IC50 | Compound |
| --- | --- |
| 32 nM | C[C@@]1(c2cc(Nc3ccnc4cc(F)cnc34)ncc2F)CS(=O)(=O)[C@@](C)(C2CC2)C(N)=N1 [Example 34, (3R,6S)-5-amino-6-cyclopropyl-3-(5-fluoro-2-((7-fluoro-1,5-naphthyridin-4-yl)amino)pyridin-4-yl)-3,6-dimethyl-3,6-dihydro-2H-1,4-thiazine 1,1-dioxide] |
| 23 nM | COc1cnc2c(Nc3ccc(F)c([C@]4(C)CS(=O)(=O)[C@@](C)(C5CC5)C(N)=N4)c3)ccnc2n1 [Example 37, (3R,6S)-5-amino-6-cyclopropyl-3-(2-fluoro-5-((3-methoxypyrido[2,3-b]pyrazin-8-yl)amino)phenyl)-3,6-dimethyl-3,6-dihydro-2H-1,4-thiazine 1,1-dioxide] |
| 130 nM | C[C@@]1(c2cc(Nc3ncnc4cc(C#N)cnc34)ncc2F)CS(=O)(=O)[C@@](C)(C2CC2)C(N)=N1 [Example 39, 4-((4-((3R,6S)-5-amino-6-cyclopropyl-3,6-dimethyl-1,1-dioxido-3,6-dihydro-2H-1,4-thiazin-3-yl)-5-fluoropyridin-2-yl)amino)pyrido[3,2-d]pyrimidine-7-carbonitrile] |
